The structures appear in SMILES notation. Several values for one entry are separate records, joined by “and”; a condition that tells them apart may be missing. Identical values can stand only once.

This data set relates to ICR mice. Briefly: Acute toxicity experiment of single oral administration in mice. The class given is in vivo. How it is done:
The mice were fasted one day before the experiment. On the day of the experiment, 6 mice (ICR mice, body weight of 19-21 g, three females and three males) were selected in each experiment group. First of all, one female and one male were selected to orally give 1000 mg/Kg, and observed for 5-10 minutes. If there were no obvious side effects, the remaining 4 animals were orally given the same dose, and observed for 10-15 minutes. If no animal died, the animals were placed in a box to balancedly feed for 7 days. The state was observed and the body weight was recorded daily.
Observation Indexes within 0-15 Minutes After Administration
Activity: restlessness, hyperactivity
Nervous system response: tremor, spasm, convulsion, ataxia, posture abnormality, etc.
Autonomic nerve: exophthalmos, salivation, tears, urination (hematuria), diarrhea, piloerection, breathing, etc.
Observation Indexes Over 7 Days
State of Animal: lethargy, hyperactivity, excitement, hair loss, diarrhea, abnormal behavior, death, etc.

The mark [1] stands for this setting: Day 1, 1000 mg/Kg single oral dose.
Setting [2] is: Day 2, 1000 mg/Kg single oral dose.
Where [3] appears, read: Day 3, 1000 mg/Kg single oral dose.
Where [4] appears, read: Day 4, 1000 mg/Kg single oral dose.
The mark [5] stands for this setting: Day 5, 1000 mg/Kg single oral dose.
Where [6] appears, read: Day 6, 1000 mg/Kg single oral dose.
Setting [7] is: Day 7, 1000 mg/Kg single oral dose.
Where [8] appears, read: Day 1, 1000 mg/Kg single oral dose, 1000 mg/kg.
[9] abbreviates: Day 2, 1000 mg/Kg single oral dose, 1000 mg/kg.
[10] abbreviates: Day 3, 1000 mg/Kg single oral dose, 1000 mg/kg.
Where [11] appears, read: Day 4, 1000 mg/Kg single oral dose, 1000 mg/kg.
The mark [12] stands for this setting: Day 5, 1000 mg/Kg single oral dose, 1000 mg/kg.
Setting [13] is: Day 6, 1000 mg/Kg single oral dose, 1000 mg/kg.
Where [14] appears, read: Day 7, 1000 mg/Kg single oral dose, 1000 mg/kg.
[15] abbreviates: Female, 1000 mg/Kg single oral dose.
Where [16] appears, read: Male, 1000 mg/Kg single oral dose.

In the case of `COCCN1C(=O)CCC(N2C(=O)c3cccc(NC(C)=O)c3C2=O)C1=O` (centres unmarked) [Example 1, 4-acetylamino-2-(1-(2-methoxyethyl)-2,6-dioxopiperidin-3-yl)isoindolin-1,3-dione], the “Daily Body Weight of Tested Female Mice (Mean ± SD)” value runs as follows: under setting [1], 18.5 ± 0.1 g; under setting [2], 22.8 ± 0.3 g; under setting [3], 23.2 ± 0.7 g; under setting [4], 24.0 ± 0.2 g; under setting [5], 25.3 ± 1.6 g; under setting [6], 25.7 ± 1.6 g. Further, under setting [7], the “Daily Body Weight of Tested Female Mice (Mean ± SD)” value amounted to 27.1 ± 1.1 g. Besides, the “Daily Body Weight of Tested Male Mice (Mean ± SD)” value runs as follows: under setting [1], 20.1 ± 1.4 g; under setting [2], 23.8 ± 1.4 g; under setting [3], 24.9 ± 1.0 g; under setting [4], 26.3 ± 1.2 g; under setting [5], 27.7 ± 1.3 g; under setting [6], 29.2 ± 1.4 g. Further, the “Daily Body Weight of Tested Male Mice (Mean ± SD)” value under setting [7] turned out to be 29.4 ± 1.4 g.
On to `COCCN1C(=O)CCC(N2C(=O)c3cccc(N(C)C)c3C2=O)C1=O` (centres unmarked) [Example 3, 4-dimethylamino-2-(1-(2-methoxyethyl)-2,6-dioxopiperidin-3-yl)isoindolin-1,3-dione], for which the “Daily Body Weight of Tested Female Mice (Mean ± SD)” value is, setting by setting: under setting [8], 18.3 ± 0.4 g and 18.8 ± 0.4 g; under setting [9], 21.7 ± 0.2 g and 22.1 ± 1.2 g; under setting [10], 22.3 ± 0.2 g and 22.7 ± 0.8 g; under setting [11], 22.6 ± 0.8 g and 23.0 ± 1.4 g; under setting [12], 23.0 ± 1.4 g and 23.7 ± 1.9 g; under setting [13], 22.6 ± 1.3 g and 24.1 ± 1.2 g. Moreover, the “Daily Body Weight of Tested Female Mice (Mean ± SD)” value under setting [14] was 22.7 ± 0.4 g and 24.4 ± 1.8 g. The “Daily Body Weight of Tested Male Mice (Mean ± SD)” value was 18.8 ± 0.7 g and 18.0 ± 0.2 g under setting [8]; 23.3 ± 0.1 g and 22.9 ± 0.3 g under setting [9]; 24.3 ± 0.1 g and 24.3 ± 0.9 g under setting [10]; 25.6 ± 0.7 g and 25.2 ± 1.1 g under setting [11]; 26.9 ± 0.8 g and 27.0 ± 1.3 g under setting [12]; 27.9 ± 0.9 g and 28.2 ± 1.9 g under setting [13]. Besides, the “Daily Body Weight of Tested Male Mice (Mean ± SD)” value under setting [14] was 28.6 ± 0.4 g and 28.5 ± 2.7 g. Also, the “Summary of toxic response of tested animals in 7 Days” value (shortened to “Summary”) is recorded as “Abnormality was not observed in 7 days of the test” under setting [15] and “Abnormality was not observed in 7 days of the test” under setting [16].
For the molecule `COCCN1C(=O)CCC(N2C(=O)c3ccc(F)c(N)c3C2=O)C1=O` (centres unmarked) [Example 9, 4-amino-S-fluoro-2-(1-(2-methoxyethyl)-2,6-dioxopiperidin-3-yl)isoindolin-1,3-dione], the “Summary” value (mouse, in vivo, po, 1000 mg/kg) is on record as “Abnormality was not observed in 7 days of the test”.
Regarding `COCCN1C(=O)CCC(N2C(=O)c3c(N)ccc(O)c3C2=O)C1=O` (centres unmarked) [Example 10, 4-amino-7-hydroxy-2-(1-(2-methoxyethyl)-2,6-dioxopiperidin-3-yl)isoindolin-1,3-dione], the “Daily Body Weight of Tested Female Mice (Mean ± SD)” value is listed as 19.2 ± 0.5 g under setting [1]; 21.9 ± 0.4 g under setting [2]; 22.4 ± 0.2 g under setting [3]; 22.4 ± 0.2 g under setting [4]; 22.9 ± 0.6 g under setting [5]; 24.1 ± 1.5 g under setting [6]. In addition, the “Daily Body Weight of Tested Female Mice (Mean ± SD)” value under setting [7] turned out to be 24.2 ± 1.8 g. For the same molecule, the “Daily Body Weight of Tested Male Mice (Mean ± SD)” value runs as follows: under setting [1], 19.4 ± 0.3 g; under setting [2], 24.4 ± 0.6 g; under setting [3], 25.5 ± 0.9 g; under setting [4], 25.5 ± 0.9 g; under setting [5], 26.8 ± 0.9 g; under setting [6], 29.2 ± 0.7 g. Further, the “Daily Body Weight of Tested Male Mice (Mean ± SD)” value under setting [7] is 30.3 ± 0.7 g. The “Summary” value under setting [15] is given as “Decrease of activity was observed in all the animals within 30” and the “Summary” value under setting [16] was “Decrease of activity was observed in all the animals within 30”.
On to `CSCCN1C(=O)CCC(N2C(=O)c3cccc(N)c3C2=O)C1=O` (centres unmarked) [Example 11, 4-amino-2-(1-(2-methylthioethyl)-2,6-dioxopiperidin-3-yl)isoindolin-1,3-dione], for which the “Daily Body Weight of Tested Female Mice (Mean ± SD)” value under setting [1] is listed as 18.1 ± 0.2 g; the “Daily Body Weight of Tested Female Mice (Mean ± SD)” value under setting [2] was 21.7 ± 0.2 g; the “Daily Body Weight of Tested Female Mice (Mean ± SD)” value under setting [3] amounted to 22.4 ± 0.1 g; the “Daily Body Weight of Tested Female Mice (Mean ± SD)” value under setting [4] was 22.4 ± 0.1 g; the “Daily Body Weight of Tested Female Mice (Mean ± SD)” value under setting [5] is 23.5 ± 0.4 g; the “Daily Body Weight of Tested Female Mice (Mean ± SD)” value under setting [6] is on record as 23.2 ± 0.8 g. Further, the “Daily Body Weight of Tested Female Mice (Mean ± SD)” value under setting [7] turned out to be 23.2 ± 0.9 g. Moreover, the “Daily Body Weight of Tested Male Mice (Mean ± SD)” value came to 19.5 ± 0.6 g under setting [1]; 23.7 ± 0.8 g under setting [2]; 25.4 ± 0.4 g under setting [3]; 25.4 ± 0.4 g under setting [4]; 27.0 ± 0.5 g under setting [5]; 29.0 ± 0.7 g under setting [6]. Moreover, the “Daily Body Weight of Tested Male Mice (Mean ± SD)” value under setting [7] is reported as 29.8 ± 1.0 g. The “Summary” value reads like this: under setting [15], “Decrease of activity was observed in one animal after”; under setting [16], “Abnormality was not observed in 7 days of the test”.
In the case of `COCCCN1C(=O)CCC(N2C(=O)c3ccc(N)cc3C2=O)C1=O` (centres unmarked) [Example 18, 5-amino-2-(1-(3-methoxypropyl)-2,6-dioxopiperidin-3-yl)isoindolin-1,3-dione], the “Daily Body Weight of Tested Female Mice (Mean ± SD)” value runs as follows: under setting [1], 18.4 ± 0.7 g; under setting [2], 22.5 ± 0.8 g; under setting [3], 23.8 ± 1.1 g; under setting [4], 24.8 ± 1.5 g; under setting [5], 24.8 ± 0.6 g; under setting [6], 25.4 ± 0.7 g. Besides, the “Daily Body Weight of Tested Female Mice (Mean ± SD)” value under setting [7] stood at 25.2 ± 1.1 g. Moreover, the “Daily Body Weight of Tested Male Mice (Mean ± SD)” value under setting [1] worked out at 18.2 ± 0.4 g; the “Daily Body Weight of Tested Male Mice (Mean ± SD)” value under setting [2] was determined as 23.0 ± 0.7 g; the “Daily Body Weight of Tested Male Mice (Mean ± SD)” value under setting [3] came out at 24.1 ± 0.4 g; the “Daily Body Weight of Tested Male Mice (Mean ± SD)” value under setting [4] stood at 25.6 ± 0.8 g; the “Daily Body Weight of Tested Male Mice (Mean ± SD)” value under setting [5] came out at 28.1 ± 1.1 g; the “Daily Body Weight of Tested Male Mice (Mean ± SD)” value under setting [6] is recorded as 29.0 ± 1.4 g. In addition, the “Daily Body Weight of Tested Male Mice (Mean ± SD)” value under setting [7] was found to be 29.0 ± 1.0 g.

These data come from patent US11873287B2, “Piperidine-2,6-dione derivatives and ulcerative colitis treating” (TIANJIN HEMAY PHARMACEUTICAL SCI-TECH CO., LTD, priority 2016, dated 2024).
